From publication PMC5701137, “Discovery of novel choline acetyltransferase inhibitors using structure-based virtual screening” (Scientific Reports, 2017)

Columns and labels:
Format in all cases: biochemical
human rChAT = biological target: T1, human rChAT (Homo sapiens, UniProt P28329); test: In vitro ChAT activity inhibition fluorometric assay and kinetic studies; details: 100 µM compound; compared to control; mean of three experiments in triplicate; read-out: ChAT % IR (inhibition rate)
T1 construct: made in house; host or cells: E. coli BL21 Rosetta2
T1 sequence (P28329 1-630 isoform P28329-3): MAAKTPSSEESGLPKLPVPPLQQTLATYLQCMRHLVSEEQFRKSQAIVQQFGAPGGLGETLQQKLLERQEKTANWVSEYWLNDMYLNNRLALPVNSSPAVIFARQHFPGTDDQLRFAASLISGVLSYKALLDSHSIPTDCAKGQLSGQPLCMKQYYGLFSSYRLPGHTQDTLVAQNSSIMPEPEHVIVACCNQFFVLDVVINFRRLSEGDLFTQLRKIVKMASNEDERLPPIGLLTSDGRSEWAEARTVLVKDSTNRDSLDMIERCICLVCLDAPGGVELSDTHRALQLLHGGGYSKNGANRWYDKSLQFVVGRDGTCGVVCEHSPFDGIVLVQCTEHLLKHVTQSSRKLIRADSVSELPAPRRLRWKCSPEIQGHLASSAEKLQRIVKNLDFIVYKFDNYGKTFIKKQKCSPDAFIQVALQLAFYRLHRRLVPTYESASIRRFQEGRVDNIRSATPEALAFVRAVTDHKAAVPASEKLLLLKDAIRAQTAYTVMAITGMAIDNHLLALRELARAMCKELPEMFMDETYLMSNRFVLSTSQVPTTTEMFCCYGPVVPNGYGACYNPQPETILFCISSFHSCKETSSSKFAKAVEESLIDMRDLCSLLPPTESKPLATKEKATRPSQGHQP
Procedure: ChAT activity was measured using our newly developed fluorometric assay, using human recombinant ChAT (rChAT) protein. The reagents, choline chloride, acetyl coenzyme-A (ACoA, A2181) and 7-Diethylamino-3-(4-maleimidophenyl)-4-methylcoumarin (CPM) were purchased from Sigma-Aldrich (St. Louis, MO, USA).
The ChAT assay could be run in either 96-well or 384-well plates. For 96-well plates, 50 μL/well of 0.212 µg/ml (final concentration) of the recombinant ChAT was incubated with 100 μM different Asinex compounds (50 μL/well) for 10–30 minutes at room temperature in dilution buffer (10 mM Tris-HCl, pH 7.4, 150 mM NaCl, 1.0 mM EDTA, 0.05% (v/v) Triton X-100). Then, 50 µL of a cocktail-A [dilution buffer containing choline chloride (final concentration 150 µM), ACoA (final concentration 13.3 µM) and CPM (final concentration 15 µM)] was added to each well. Immediately after adding the cocktail-A, the changes in fluorescence was monitored kinetically at 479 nm after exciting at 390 nm at 1–2 minute intervals for 15–20 minutes using a microplate spectrophotometer reader (Infinite M1000, Tecan).
Each Asinex compounds were run in triplicates. On each 96-wells plate, several enzyme wells without inhibitor were also included during measurements as control and for estimating the inhibition level. Negative controls were wells without enzyme. The percentage inhibition for each Asinex compound was calculated based on the enzyme control value as a reference (100% activity). The compounds showing over 50% inhibition of enzyme activity were selected for further kinetic studies.
(§1) For kinetic studies, a similar protocol as inhibition assay was followed; a dilution series of five different concentrations ranging from 10^−6 to 10^−9 M were prepared for each selected Asinex compounds. For ChAT, the A-CoA was kept constant at 10 μM (final) but the concentration of choline chloride varied between 320–10 μM. For BuChE, BTC was used as the substrate in the concentrations ranging from 0.0625 to 2 mM. For AChE, ATC was used as the substrate in the concentrations ranging from 0.0312 to 1 mM. Each compound concentration was measured in duplicates. The rate of enzyme activity (as ∆OD/hr kinetic data) was calculated and processed using the GraphPad Prism 7 analysis software. The inhibitory constant (Ki) values were determined from the dose-response curve and the half-maximal inhibitory concentration (IC50) values were calculated by plotting the percentage enzyme activity vs. the log of the Asinex compound concentrations and fitting the data using the nonlinear regression Enzyme Kinetics-Inhibition function.
The Michaelis-Menten constant (Km) and maximal velocity (Vmax) values were calculated from substrate-velocity curve after fitting the data with non-linear regression Michaelis-Menten kinetic function. The Km and Vmax values were further used to plot the Lineweaver-Burk plots; the plots were fitted using linear regression function.

recombinant human AChE = biological target: T2, recombinant human AChE (Homo sapiens, UniProt P22303); test: Modified Ellman's colorimetric assay for AChE and kinetic studies; details: for inhibition at 200 µM: 200 µM compound, compared to control, mean of three experiments in triplicate, read-out: AChE % IR (inhibition rate); for Ki / IC50: mean of two experiments; for IC50: substrate ATC 0.5 mM
T2 construct: purchased Sigma C1682
T2 sequence (P22303 32-614): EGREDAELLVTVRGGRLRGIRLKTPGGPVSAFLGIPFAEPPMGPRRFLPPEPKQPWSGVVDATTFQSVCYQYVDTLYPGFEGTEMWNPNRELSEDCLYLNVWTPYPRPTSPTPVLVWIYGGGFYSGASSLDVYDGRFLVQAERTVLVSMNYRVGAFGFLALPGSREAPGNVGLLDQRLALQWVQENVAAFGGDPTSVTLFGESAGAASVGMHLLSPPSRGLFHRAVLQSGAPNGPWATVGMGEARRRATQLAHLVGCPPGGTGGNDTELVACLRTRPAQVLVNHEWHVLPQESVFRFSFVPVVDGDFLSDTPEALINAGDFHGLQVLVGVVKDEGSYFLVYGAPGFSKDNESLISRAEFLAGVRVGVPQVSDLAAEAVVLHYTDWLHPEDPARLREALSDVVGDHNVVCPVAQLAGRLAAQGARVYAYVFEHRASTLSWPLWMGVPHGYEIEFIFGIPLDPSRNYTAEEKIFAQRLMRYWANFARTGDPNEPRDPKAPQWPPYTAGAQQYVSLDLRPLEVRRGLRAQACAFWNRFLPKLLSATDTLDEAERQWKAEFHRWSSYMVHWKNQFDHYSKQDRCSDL
Source text: (§2) A modified version of Ellman’s colorimetric assay[16],[17] was adapted to a high throughput assay for the enzymatic activity of BuChE and AChE. The reagent, butyrylthiocholine iodide (BTC), acetylthiocholine iodide (ATC), 5,5′-dithiobis (2-nitrobenzoic acid) (DTNB) were purchased from Sigma-Aldrich (St. Louis, MO, USA). The modified assay details are as previously described[34],[35]. The main modification concerned with the high throughput adaptation of the assay for use in 384-well plates. Briefly, 25 μL/well of a 1:450 diluted solution of a pooled human plasma and 1:768 diluted (3.5 ng/ml final concentration) purified recombinant human AChE protein (Sigma, Cat no. C1682) was used for measurement of BuChE and AChE activity, respectively. In the initial in vitro screening step, the wells were pre-incubated with 25 μL/wells of different Asinex compounds for 10–30 minutes at room temperature. The concentration of the compounds working solution was 3X to give a final concentration of 200 μM in a final volume of 75 μL in each well. The stock concentration of the compounds were prepared in 100% DMSO. The stock concentration was chosen usually at 10 mM, allowing the final DMSO concentration in the wells to be less than 4%. Finally, 25 μL of a cocktail mix prepared in Na/K phosphate buffer, containing DTNB (final concentration 0.4 mM) and BTC, (final concentration 1 mM) or ATC (final concentration 0.5 mM) was added to each well and the changes in absorbance was monitored at 412 nm wavelength for 15–20 minutes with one-minute interval, using a microplate spectrophotometer reader (Infinite M1000, Tecan). The rate of the enzyme activity was determined from the linear part of the kinetic reaction curves as ∆OD/time.
as §1

plasma BuChE = biological target: T3, plasma BuChE (Homo sapiens, UniProt P06276); test: Modified Ellman's colorimetric assay for BuChE (pooled human plasma) and kinetic studies; details: 200 µM compound; compared to control; mean of three experiments in triplicate; read-out: BuChE % IR (inhibition rate)
T3 construct: 1:450 diluted solution of a pooled human plasma; from tissue; host or cells: pooled human plasma
T3 sequence (P06276 29-602): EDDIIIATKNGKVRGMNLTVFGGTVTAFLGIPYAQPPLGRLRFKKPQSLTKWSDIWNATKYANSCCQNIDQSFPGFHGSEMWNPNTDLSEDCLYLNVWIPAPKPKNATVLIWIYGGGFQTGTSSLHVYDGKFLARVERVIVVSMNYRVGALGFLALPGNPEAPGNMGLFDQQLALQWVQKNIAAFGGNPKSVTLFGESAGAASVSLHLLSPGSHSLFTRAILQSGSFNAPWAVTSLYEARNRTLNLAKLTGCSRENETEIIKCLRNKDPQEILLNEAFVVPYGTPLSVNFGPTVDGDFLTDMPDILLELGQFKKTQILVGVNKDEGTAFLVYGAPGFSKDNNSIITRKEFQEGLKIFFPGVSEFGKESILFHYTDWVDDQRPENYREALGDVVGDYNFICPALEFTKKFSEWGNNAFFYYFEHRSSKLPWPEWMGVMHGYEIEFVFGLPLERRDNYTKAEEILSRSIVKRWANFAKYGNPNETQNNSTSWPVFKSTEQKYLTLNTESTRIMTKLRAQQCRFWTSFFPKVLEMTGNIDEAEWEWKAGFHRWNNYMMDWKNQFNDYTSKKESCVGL
Source text: as §2, §1

| Compound | inhibition at 100 µM (human rChAT) | inhibition at 200 µM (recombinant human AChE) | inhibition at 200 µM (plasma BuChE) | Ki (recombinant human AChE) | IC50 (recombinant human AChE) |
| --- | --- | --- | --- | --- | --- |
| COc1cc(OC)cc(C(=O)N2CCN(C(=O)C(c3ccccc3)c3ccccc3)CC2)c1 [Compound A1] | 0% | 0% | 4.8% | – | – |
| CCOC(=O)c1sc2ncn(CCc3ccccc3)c(=O)c2c1C [Compound A3] | 6.9% | 0% | 15.1% | – | – |
| Cc1c(C)n(C(=O)CSc2nnc(-c3ccccc3)o2)c2ccccc12 [Compound A4] | 26.7% | 0% | 14.4% | – | – |
| CC1(C)CC(=O)C(=CNCC2CCN(C(=O)Cc3ccc(Cl)cc3)CC2)C(=O)C1 [Compound A5] | 2.1% | 7% | 9.2% | – | – |
| Cc1cc2nc(C3CCN(CC(=O)Nc4ccccc4)CC3)[nH]c2cc1C [Compound A6] | 0% | 11.9% | 20.2% | – | – |
| Clc1cccc(N2CCN(Cc3nnn(Cc4ccco4)n3)CC2)c1 [Compound A7] | 7.2% | 15.8% | 29.9% | – | – |
| COc1ccc(Cl)cc1NC(=O)CCN1CCN(c2ccccc2C)CC1 [Compound B2] | 0% | 0% | 18.5% | – | – |
| COc1ccc(CC(=O)Nc2cc3oc4ccccc4c3cc2OC)cc1 [Compound B3] | 0% | 0% | 16.6% | – | – |
| COc1cc(CN2CCC(C(=O)N3CCC(C)CC3)CC2)ccc1OCc1ccccc1 [Compound B5] | 0% | 26.1% | 39.5% | – | – |
| COc1ccccc1N1CCN(c2nc(-c3ccc(C)cc3)cc(=O)[nH]2)CC1 [Compound B6] | 7.6% | 2.6% | 11% | – | – |
| O=C(Nc1ccc(CN2CCOCC2)cc1)c1ccc2c(c1)[nH]c(=O)n2CCc1ccccc1 [Compound B7] | 13.3% | – | 14.9% | 65.4 µM | 40.1 µM |
| CN(C(=O)COc1ccc(-c2nn(C)c(=O)c3ccccc23)cc1)C1CCCCC1 [Compound C1] | 0% | – | 9.8% | 42.3 µM | 71.9 µM |
| CCn1c(CNC(=O)COc2ccc(Cl)cc2)cc2ccccc21 [Compound C3] | 0% | 22% | 20.1% | – | – |
| COc1ccc(-c2nnc(-c3cc4c(ccc5ccccc54)oc3=O)o2)cc1 [Compound C6] | – | 33.1% | 34.7% | – | – |
| COCCNc1c(-c2cc3cc(C)ccc3[nH]c2=O)nc2ccc(Cl)cn12 [Compound C7] | 0% | 15.7% | 29.4% | – | – |
| Cc1cccc(N2CCN(CC(=O)Nc3ccc(C)c(F)c3)CC2)c1 [Compound D1] | 0% | 0% | 20% | – | – |
| CC(=O)c1ccc(NC(=O)CN2CCN(c3cccc(C)c3C)CC2)cc1 [Compound D2] | 0% | 18.1% | 7% | – | – |
| COc1ccc(NC(=O)Cn2nc(C(F)(F)F)c3c2CCCC3)c(OC)c1 [Compound D5] | 0% | 4.2% | 7.8% | – | – |
| COc1ccc(-c2cc(C(F)(F)F)nc(SCCC(=O)N3CCN(C)CC3)n2)cc1 [Compound D6] | 4.8% | 0% | 9.3% | – | – |
| CCOc1ccc2[nH]c(=O)c(CN(Cc3ccccc3)C(=O)N3CCCC3)cc2c1 [Compound D7] | 0% | 27.7% | 22.4% | – | – |
| CCc1ccccc1NC(=O)CSc1nnc(-c2cccnc2)n1CC [Compound E2] | 4.1% | 2.7% | 12% | – | – |
| O=C(CSc1nnc(-c2cccc(F)c2)o1)N1CCC(Cc2ccccc2)CC1 [Compound E3] | 10.3% | 10.2% | 23% | – | – |
| COc1cccc(OCC(=O)Nc2cc3oc4ccccc4c3cc2OC)c1 [Compound E4] | 4.8% | 1.5% | 11.7% | – | – |
| C=C(C)CN1N=C(C)Cn2c1nc1c2c(=O)n(C/C=C/c2ccccc2)c(=O)n1C [Compound E5] | 0% | 4.1% | 12.8% | – | – |
| Cc1ccccc1OCC(=O)Oc1ccc2c(C)cc(=O)oc2c1 [Compound E6] | 2.5% | 0% | 13.2% | – | – |
| Cc1onc(-c2ccccc2Cl)c1C(=O)N1CCN(Cc2ccc3c(c2)OCO3)CC1 [Compound E7] | 0% | 0.5% | 37.5% | – | – |
